Results: patent publication US20260274833A1 (NiKang Therapeutics, Inc., priority 2022, published 2026)

Target: T1, CDK2 (Homo sapiens, UniProt P24941)
T1 construct: endogenous in cells; host or cells: OVCAR3 cells
Test: Phospho-RB measurement in OVCAR3 cells (HTRF phospho-RB cellular kit)
Format: cell-based
Conditions: inhibition of RB phosphorylation at S807/811 (HTRF, TR-FRET ratio 665/620), 24 h compound treatment, 0.3 to 10,000 nM
Outline: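 IC50 came from a four-parameter logistic fit of the DMSO-normalized TR-FRET ratio (665/620 nm). That ratio reflects RB phosphorylation at S807/811, read with an HTRF antibody pair 4 h after adding lysate at room temperature.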

Row | SMILES | IC50 [nM]
1 | O=S1(=O)CC2(CC(Nc3nccc(-c4sc(C56CC(C5)C6)nc4-c4cccc(NS(=O)(=O)N5C6CCC5c5ccccc56)c4F)n3)C2)C1 [Example 268, N-(3-(2-(bicyclo [1.1.1]pentan-1-yl)-5-(2-((2,2-dioxido-2-thiaspiro[3.3]heptan-6-yl)amino)-pyrimidin-4-yl)thiazol-4-yl)-2-fluorophenyl)-1,2,3,4-tetrahydro-1,4-epiminonaphthalene-9-sulfonamide] | 8310
2 | CS(=O)(=O)CC12CC(Nc3nccc(-c4sc(C56CC(C5)C6)nc4-c4cccc(NS(=O)(=O)N5CCc6ccc(Cl)cc65)c4F)n3)(C1)C2 [Example 269, N-(3-(2-(bicyclo [1.1.1]pentan-1-yl)-5-(2-((3-((methylsulfonyl)methyl)bicyclo-[1.1.1]pentan-1-yl)amino)pyrimidin-4-yl)thiazol-4-yl)-2-fluorophenyl)-6-chloroindoline-1-sulfonamide] | 70.6
3 | O=S1(=O)CC2(CC(Nc3nccc(-c4sc(C56CC(C5)C6)nc4-c4cccc(NS(=O)(=O)N5CC6CCC(CC6)C5)c4F)n3)C2)C1 [Example 270, (1s,5s)-N-(3-(2-(bicyclo[1.1.1]pentan-1-yl)-5-(2-((2,2-dioxido-2-thiaspiro[3.3]-heptan-6-yl)-amino)pyrimidin-4-yl)thiazol-4-yl)-2-fluorophenyl)-3-azabicyclo[3.2.2] nonane-3-sulfonamide] | 3430
4 | N=S1(=O)CC2(CC(Nc3nccc(-c4sc(C56CC(C5)C6)nc4-c4cccc(NS(=O)(=O)N5CCc6ccccc65)c4F)n3)C2)C1 (stereo not drawn) [Example 271, N-(3-(2-(bicyclo [1.1.1]pentan-1-yl)-5-(2-((2-imino-2-oxido-26-thiaspiro[3.3]-heptan-6-yl)-amino)pyrimidin-4-yl)thiazol-4-yl)-2-fluorophenyl) indoline-1-sulfonamide] | 8150
5 | O=S1(=O)CC2(CC(Nc3nccc(-c4sc(C56CC(C5)C6)nc4-c4cccc(NS(=O)(=O)N5CCOc6ccccc6C5)c4F)n3)C2)C1 [Example 272, N-(3-(2-(bicyclo [1.1.1]pentan-1-yl)-5-(2-((2,2-dioxido-2-thiaspiro[3.3]heptan-6-yl)amino)-pyrimidin-4-yl)thiazol-4-yl)-2-fluorophenyl)-2,3-dihydrobenzo-[f][1,4]oxazepine-4(5H)-sulfonamide] | 350
6 | O=S1(=O)CC2(CC(Nc3nccc(-c4sc(C56CC(C5)C6)nc4-c4cccc(NS(=O)(=O)N5CCOCc6ccccc65)c4F)n3)C2)C1 [Example 273, N-(3-(2-(bicyclo [1.1.1]pentan-1-yl)-5-(2-((2,2-dioxido-2-thiaspiro[3.3]heptan-6-yl)amino)-pyrimidin-4-yl)thiazol-4-yl)-2-fluorophenyl)-2,3-dihydrobenzo-[e][1,4]oxazepine-1(5H)-sulfonamide] | 3280
7 | CN1CCN(S(=O)(=O)Nc2cccc(-c3nc(C45CC(C4)C5)sc3-c3ccnc(NC4CC5(C4)CS(=O)(=O)C5)n3)c2F)c2ccccc21 [Example 274, N-(3-(2-(bicyclo [1.1.1]pentan-1-yl)-5-(2-((2,2-dioxido-2-thiaspiro[3.3]heptan-6-yl)amino)-pyrimidin-4-yl)thiazol-4-yl)-2-fluorophenyl)-4-methyl-3,4-dihydro-quinoxaline-1(2H)-sulfonamide] | 130
8 | CN1CCN(S(=O)(=O)Nc2cccc(-c3nc(C45CC(C4)C5)sc3-c3ccnc(NC4CC5(C4)CS(=O)(=O)C5)n3)c2F)Cc2ccccc21 [Example 275, N-(3-(2-(bicyclo [1.1.1]pentan-1-yl)-5-(2-((2,2-dioxido-2-thiaspiro[3.3]heptan-6-yl)amino)-pyrimidin-4-yl)thiazol-4-yl)-2-fluorophenyl)-1-methyl-1,2,3,5-tetrahydro-4H-benzo[e][1,4]-diazepine-4-sulfonamide] | 339
9 | CS(=O)(=O)[C@H]1CC[C@H](Nc2nccc(-c3sc(C45CC(F)(C4)C5)nc3-c3cccc(NS(=O)(=O)N4CCc5ccc(C(F)(F)F)cc54)c3F)n2)CC1 [Example 276, N-(2-fluoro-3-(2-(3-fluorobicyclo-[1.1.1]pentan-1-yl)-5-(2-(((1s,4s)-4-(methylsulfonyl)-cyclohexyl)amino)-pyrimidin-4-yl)thiazol-4-yl)phenyl)-6-(trifluoromethyl) indoline-1-sulfonamide] | 192
10 | O=S1(=O)CC2(CC(Nc3nccc(-c4sc(C56CC(F)(C5)C6)nc4-c4cccc(NS(=O)(=O)N5CCc6ccc(C(F)(F)F)cc65)c4F)n3)C2)C1 [Example 277, N-(3-(5-(2-((2,2-dioxido-2-thiaspiro-[3.3]-heptan-6-yl)amino)pyrimidin-4-yl)-2-(3-fluorobicyclo [1.1.1]pentan-1-yl)-thiazol-4-yl)-2-fluorophenyl)-6-(trifluoromethyl) indoline-1-sulfonamide] | 111
11 | O=S1(=O)CC2(CC(Nc3nccc(-c4sc(C56CC(C(F)F)(C5)C6)nc4-c4cccc(NS(=O)(=O)N5CCc6ccc(C(F)(F)F)cc65)c4F)n3)C2)C1 [Example 278, N-(3-(2-(3-(difluoromethyl)bicyclo-[1.1.1]-pentan-1-yl)-5-(2-((2,2-dioxido-2-thiaspiro[3.3]heptan-6-yl)amino)-pyrimidin-4-yl)thiazol-4-yl)-2-fluorophenyl)-6-(trifluoromethyl)-indoline-1-sulfonamide] | 103
12 | O=S1(=O)CC2(CC(Nc3nccc(-c4sc(C56CC(C(F)(F)F)(C5)C6)nc4-c4cccc(NS(=O)(=O)N5CCc6ccc(C(F)(F)F)cc65)c4F)n3)C2)C1 [Example 279, N-(3~(5-(2-((2,2-dioxido-2-thiaspiro-[3.3]heptan-6-yl)amino)pyrimidin-4-yl)-2-(3-(trifluoromethyl)bicyclo[1.1.1]-pentan-1-yl)thiazol-4-yl)-2-fluoro-phenyl)-6-(trifluoromethyl) indoline-1-sulfonamide] | 409
13 | O=S1(=O)CC2(CC(Nc3nccc(-c4sc(C56CC(C(F)(F)F)(C5)C6)nc4-c4cccc(NS(=O)(=O)N5CCc6ccc(Cl)cc65)c4F)n3)C2)C1 [Example 280, 6-chloro-N-(3-(5-(2-((2,2-dioxido-2-thiaspiro[3.3]heptan-6-yl)amino)-pyrimidin-4-yl)-2-(3-(trifluoromethyl)-bicyclo[1.1.1]pentan-1-yl)thiazol-4-yl)-2-fluorophenyl) indoline-1-sulfonamide] | 285
14 | O=S1(=O)CC2(CC(Nc3nccc(-c4sc(C56CC(C(F)(F)F)(C5)C6)nc4-c4cccc(NS(=O)(=O)N5CCc6ccccc65)c4F)n3)C2)C1 [Example 281] | 739
15 | CS(=O)(=O)[C@H]1CC[C@H](Nc2nccc(-c3sc(C4(C(F)(F)F)CC4)nc3-c3cccc(NS(=O)(=O)N4CCc5ccc(C(F)(F)F)cc54)c3F)n2)CC1 [Example 282, N-(2-fluoro-3-(5-(2-(((1r,4r)-4-(methylsulfonyl)cyclohexyl)amino)pyrimidin-4-yl)-2-(1-(trifluoromethyl)-cyclopropyl)thiazol-4-yl)phenyl)-6-(trifluoromethyl) indoline-1-sulfonamide] | 357
16 | CS(=O)(=O)[C@H]1CC[C@H](Nc2nccc(-c3sc(C4(C(F)(F)F)CC4)nc3-c3cccc(NS(=O)(=O)N4CCc5ccc(Cl)cc54)c3F)n2)CC1 [Example 283, 6-chloro-N-(2-fluoro-3-(5-(2-(((1r,4r)-4-(methylsulfonyl)cyclohexyl)amino)pyrimidin-4-yl)-2-(1-(trifluoromethyl)-cyclopropyl)thiazol-4-yl)phenyl)-indoline-1-sulfonamide] | 200
17 | CS(=O)(=O)[C@H]1CC[C@H](Nc2nccc(-c3sc(C4(C(F)(F)F)CC4)nc3-c3cccc(NS(=O)(=O)N4CCc5ccccc54)c3F)n2)CC1 [Example 284, N-(2-fluoro-3-(5-(2-(((11,4r)-4-(methylsulfonyl)cyclohexyl)amino)pyrimidin-4-yl)-2-(1-(trifluoromethyl)-cyclopropyl)thiazol-4-yl)phenyl)-indoline-1-sulfonamide] | 384
18 | CC1(S(C)(=O)=O)CCC(Nc2nccc(-c3sc(C45CC(C(F)(F)F)(C4)C5)nc3-c3cccc(NS(=O)(=O)N4CCc5ccccc54)c3F)n2)CC1 (stereo not drawn) [Example 285, N-(2-fluoro-3-(5-(2-((4-methyl-4-(methylsulfonyl)cyclohexyl)amino)pyrimidin-4-yl)-2-(3-(trifluoromethyl)bicyclo-[1.1.1]pentan-1-yl)thiazol-4-yl)phenyl)-indoline-1-sulfonamide] | 3060
19 | O=S1(=O)CC2(CC(Nc3nccc(-c4sc(C5(C(F)(F)F)CC5)nc4-c4cccc(NS(=O)(=O)N5CCc6ccc(C(F)(F)F)cc65)c4F)n3)C2)C1 [Example 286, N-(3-(5-(2-((2,2-dioxido-2-thiaspiro-[3.3]heptan-6-yl)amino)pyrimidin-4-yl)-2-(1-(trifluoromethyl)cyclopropyl)-thiazol-4-yl)-2-fluorophenyl)-6-(trifluoromethyl) indoline-1-sulfonamide] | 574
20 | O=S1(=O)CC2(CC(Nc3nccc(-c4sc(C5(C(F)(F)F)CC5)nc4-c4cccc(NS(=O)(=O)N5CCc6ccc(Cl)cc65)c4F)n3)C2)C1 [Example 287, 6-chloro-N-(3-(5-(2-((2,2-dioxido-2-thiaspiro[3.3]heptan-6-yl)amino)-pyrimidin-4-yl)-2-(1-(trifluoromethyl)-cyclopropyl)thiazol-4-yl)-2-fluoro-phenyl)indoline-1-sulfonamide] | 347
21 | CC(C)(c1nc(-c2cccc(NS(=O)(=O)N3CCc4ccccc43)c2F)c(-c2ccnc(N[C@H]3CC[C@H](S(C)(=O)=O)CC3)n2)s1)C(F)(F)F [Example 288, N-(2-fluoro-3-(5-(2-(((1r,4r)-4-(methylsulfonyl)cyclohexyl)amino)-pyrimidin-4-yl)-2-(1,1,1-trifluoro-2-methylpropan-2-yl)thiazol-4-yl)phenyl)-indoline-1-sulfonamide] | 122
